Source: patent US20150265633A1, “STEROID CONTAINING DRUG DELIVERY SYSTEM” (Allergan, Inc., priority 2007, published 2015)
Values after ≈ are worked out from the molar mass of the structure shown.

What was measured:
physchem = experiment: physchem
Text: Log P is the lipophilicity coefficient, where P is the octonol/water partition coefficient.

[1] = test system: VEGF-induced BRB and BAB breakdown in rabbit eye; experiment: Rabbit model of VEGF-induced BRB and BAB breakdown, scanning ocular fluorophotometry, aqueous steroid suspensions (Example 1); format: in vivo; details: for inhibition of VEGF-induced BAB breakdown (iris leakage, anterior segment) / inhibition of VEGF-induced BRB breakdown (retinal leakage, posterior segment): 1 mg (100 μl of 10 mg/ml suspension) intravitreal, VEGF one month thereafter, fluorophotometry 48 hrs after VEGF; for block of VEGF-induced BAB breakdown (iris leakage) / block of VEGF-induced BRB breakdown (retinal leakage): rabbit, corticosteroid administered systemically or intravitreally
Procedure: An in vivo (rabbit eye) experiment was carried out with liquid glucocorticoid derivative formulations. Recombinant vascular endothelial growth factor (VEGF) was obtained from a supplier (R&D Systems). Female Dutch Belt rabbits were anaesthetized with isoflurane inhalation and topical 0.5% proparacaine hydrochloride, and intravitreal injection of one eye with 500 ng VEGF in sterile phosphate buffered saline (PBS) containing 0.1% bovine serum albumin was performed using a 28 gauge ½ inch needle. The other eye is given the same volume of the vehicle, without the VEGF.
The extent of VEGF-induced BRB and BAB breakdown of the blood retinal barrier and the blood aqueous barrier was measured by scanning ocular fluorophotemetry (Fluorotron Master, Ocumetrics Inc.); at various times following intravitreal injection. In this model a fluorescent label is administered intravenously, following by determination of the amount of fluorescenin in the anterior and posterior segment and an indication of iridial and retinal leakage, respectively.
VEGF injection mimics this pathological condition.
Sodium fluorescein in 1 ml saline was injected via the marginal ear vein at a concentration of 50 mg/kg, and ocular fluorescein levels in the vitreoretinal chamber and the anterior chamber was determined 50 minutes later.
Ten milligrams of each compound is added to 1 ml of sterile phosphate-buffered saline (PBS; ph 7.4). At day 0, 100 μl of a 10 mg/ml suspension of each steroid is injected into the vitreous of a rabbit eye. The PBS vehicle is injected into the other eye. VEGF is then injected at a pre-determined time (one month) thereafter, and BRB and BAB breakdown were measured by scanning ocular fluorophotometry 48 hrs later as described in Edelman et al., EXP.

cystic macular edema = experiment: Treatment of macular edema with a solid GD implant (Example 4); format: in vivo, human
Procedure: A person diagnosed with cystic macular edema treated by administration of a biodegradable drug delivery system administered to each eye of the patient. […] A similar implant is administered subconjunctivally to the patient's right eye. […] No increase in intraocular pressure is seen one week after administration.

Water solubility = format: physicochemical
[2] = test system: wet age-related macular degeneration; experiment: Treatment of ARMD with a viscous GD formulation (Example 5); format: in vivo, human; details: intravitreal 100 μl hyaluronic acid solution with about 1000 μg crystals in suspension
Procedure: A person with wet age-related macular degeneration is treated with an intravitreal injection of 100 μl of a hyaluronic acid solution containing about 1000 μg of fluticasone propionate crystals in suspension.

[3] = after about 3 months from the surgery, 2 mg PLGA implant with about 1000 μg drug
[4] = 500 ng VEGF intravitreal, 48 hours after injection, 50 minutes after fluorescein

| Molecule | Lipophicity (log P) (physchem) | logP (physchem) | inhibition of VEGF-induced BAB breakdown (iris leakage, anterior segment) ([1]; rabbit eye) | inhibition of VEGF-induced BRB breakdown (retinal leakage, posterior segment) ([1]; rabbit eye) | block of VEGF-induced BAB breakdown (iris leakage) [1] | block of VEGF-induced BRB breakdown (retinal leakage) [1] | also measured |
| --- | --- | --- | --- | --- | --- | --- | --- |
| C[C@@H]1C[C@H]2[C@@H]3CCC4=CC(=O)C=C[C@]4(C)[C@@]3(F)[C@@H](O)C[C@]2(C)[C@@]1(O)C(=O)CO [Dexamethasone] | 1.95 | 1.95 | – | – | – | – | – |
| CCC(=O)OCC(=O)[C@@]1(OC(=O)CC)[C@@H](C)C[C@H]2[C@@H]3CCC4=CC(=O)C=C[C@]4(C)[C@@]3(Cl)[C@@H](O)C[C@@]21C [Beclomethasone dipropionate, beclomethasone 17,21-dipropionate] | 4.40 | 4.4 | no effect | completely blocks | – | – | duration of complete inhibition of VEGF-mediated responses ([1]; rabbit eye, 100 μl of 10 mg/ml intravitreal): greater than 3 months; appearance of the retina (cystic macular edema; [3]): appears normal; degeneration of the optic nerve (cystic macular edema; [3]): appears to be reduced; increase in intraocular pressure (cystic macular edema; one week after administration, 2 mg PLGA implant with about 1000 μg drug): No increase; reduction in retinal thickness (cystic macular edema; right eye (implant subconjunctival) versus left eye (intravitreal), 2 mg implant, about 1000 μg PLGA and about 1000 μg drug): more rapid reduction |
| CC1(C)O[C@@H]2C[C@H]3[C@@H]4CCC5=CC(=O)C=C[C@]5(C)[C@@]4(F)[C@@H](O)C[C@]3(C)[C@]2(C(=O)CO)O1 [Triamcinolone acetonide] | – | – | completely inhibited | completely inhibited | completely blocked | completely blocked | Water Solubility (Water solubility): 21 µg/mL; logP (physchem; octanol/water): 2.53 |
| CCC(=O)O[C@]1(C(=O)SCF)[C@H](C)C[C@H]2[C@@H]3C[C@H](F)C4=CC(=O)C=C[C@]4(C)[C@@]3(F)[C@@H](O)C[C@@]21C [Fluticasone propionate] | 4.20 | 4.2 | no effect | completely blocks | – | – | solubility (Water solubility; water): 0.14 µg/mL (≈ 0.28 µM); quality of life reported by patient [2]: overall improvement; rate of neovascularization and related inflammation ([2]; within one month): acceptable reduction |
| VEGF | – | – | – | – | – | – | increase in fluorescein contained in the aqueous (BAB breakdown) compared to normal untreated rabbit eyes [1, 4]: approximately 6 fold; increase in fluorescein contained in the vitreous (BRB breakdown) compared to normal untreated rabbit eyes [1, 4]: approximately 18 fold |
| C[C@H]1C[C@H]2[C@@H]3CCC4=CC(=O)C=C[C@]4(C)[C@@]3(Cl)[C@@H](O)C[C@]2(C)[C@@]1(O)C(=O)CO [beclomethasone] | – | – | inhibited | inhibited | completely blocked | completely blocked | – |
